pIC50: −log10 of the molar value.
Target: Factor D (Homo sapiens (Human), UniProt P00746)
Experiment: biochemical
Format: biochemical
Settings: read-out: IC50

Factor D, sequence (P00746 26-253): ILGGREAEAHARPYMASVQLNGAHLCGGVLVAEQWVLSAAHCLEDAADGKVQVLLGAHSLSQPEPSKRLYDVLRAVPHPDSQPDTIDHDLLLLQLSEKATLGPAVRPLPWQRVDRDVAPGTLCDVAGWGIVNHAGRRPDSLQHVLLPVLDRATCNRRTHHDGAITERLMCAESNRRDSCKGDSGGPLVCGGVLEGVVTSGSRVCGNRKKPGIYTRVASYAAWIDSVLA

Compound | pIC50
NC(=O)n1cc(NC(=O)N2C[C@H](F)C[C@H]2CNS(=O)(=O)c2ccc(Cl)s2)c2ccccc21 [Example 111, 3-({(2S,4R)-2-[(5-Chloro-thiophene-2-sulfonylamino)-methyl]-4-fluoro-pyrrolidine-1-carbonyl}-amino)-indole-1-carboxylic acid amide] | 7.22
C[C@@H](NC(=O)[C@@H]1C[C@H]2C[C@H]2N1C(=O)Cn1nc(C(N)=O)c2cc(C3CC3)ncc21)c1cccc(Cl)c1F [Example 701, 1-(2-{(1R,3S,5R)-3-[(R)-1-(3-Chloro-2-fluoro-phenyl)-ethylcarbamoyl]-2-aza-bicyclo[3.1.0]hex-2-yl}-2-oxo-ethyl)-5-cyclopropyl-1H-pyrazolo[3,4-c]pyridine-3-carboxylic acid amide] | 7.82
CC(=O)c1nc(CC(=O)N2[C@@H]3C[C@@H]3C[C@H]2C(=O)N[C@H](CC#N)c2cccc(Cl)c2F)n2ccccc12 [Example 679, (1R,3S,5R)-2-[2-(1-Acetyl-imidazo[1,5-a]pyridin-3-yl)-acetyl]-2-aza-bicyclo[3.1.0]hexane-3-carboxylic acid [(R)-1-(3-chloro-2-fluoro-phenyl)-2-cyano-ethyl]-amide] | 6.87
NC(=O)n1cc(NC(=O)N2[C@@H]3C[C@@H]3C[C@H]2C(=O)NCc2ccccc2F)c2cc(O)ccc21 [Example 372, (1R,3S,5R)-2-Aza-bicyclo[3.1.0]hexane-2,3-dicarboxylic acid 2-[(1-carbamoyl-5-hydroxy-1H-indol-3-yl)-amide]3-(2-fluoro-benzylamide)] | 7.35
NC(=O)n1cc(NC(=O)N2CCS[C@H]2C(=O)NCc2cccc(Cl)c2F)c2ccccc21 [Example 178, (S)-Thiazolidine-2,3-dicarboxylic acid 3-[(1-carbamoyl-1H-indol-3-yl)-amide] 2-(3-chloro-2-fluoro-benzylamide)] | 8.22
COC[C@@H](NC(=O)[C@@H]1[C@@H]2C[C@@H]2CN1C(=O)Nc1cn(C(N)=O)c2ccccc12)c1cccc(Cl)c1F [Example 231, (1R,2S,5S)-3-Aza-bicyclo[3.1.0]hexane-2,3-dicarboxylic acid 3-[(1-carbamoyl-1H-indol-3-yl)-amide] 2-{[(S)-1-(3-chloro-2-fluoro-phenyl)-2-methoxy-ethyl]-amide}] | 6.99
C[C@@]1(F)C[C@@H](C(=O)N[C@H](CCO)c2cccc(Cl)c2F)N(C(=O)Nc2cn(C(N)=O)c3ccccc23)C1 [Example 229, (2S,4R)-4-Fluoro-4-methyl-pyrrolidine-1,2-dicarboxylic acid 1-[(1-carbamoyl-1H-indol-3-yl)-amide] 2-{[(R)-1-(3-chloro-2-fluoro-phenyl)-3-hydroxy-propyl]-amide}] | 7.54
CC(=O)c1cn(CC(=O)N2[C@@H]3C[C@@H]3C[C@H]2C(=O)Nc2cccc(Br)n2)c2ccncc12 [Example 751, (1R,3S,5R)-2-[2-(3-Acetyl-pyrrolo[3,2-c]pyridin-1-yl)-acetyl]-2-aza-bicyclo[3.1.0] hexane-3-carboxylic acid (6-bromo-pyridin-2-yl)-amide] | 7.09
NC(=O)c1cn(CC(=O)N2CCC[C@H]2C(=O)Nc2cccc(OC(F)(F)F)c2)c2ccccc12 [Example 118, 1-{2-oxo-2-[(S)-2-(3-trifluoromethoxy-phenylcarbamoyl)-pyrrolidin-1-yl]-ethyl}-1H-indole-3-carboxylic acid amide] | 4.76
CO[C@@H]1CCN(C(=O)Nc2cn(C(N)=O)c3ccccc23)[C@@H]1C(=O)NCc1cccc(Cl)c1F [Example 186, (2S,3R)-3-Methoxy-pyrrolidine-1,2-dicarboxylic acid 1-[(1-carbamoyl-1H-indol-3-yl)-amide] 2-(3-chloro-2-fluoro-benzylamide)] | 7.70
C[C@@H](NC(=O)[C@@H]1[C@H](O)CCN1C(=O)Nc1cn(C(N)=O)c2ccccc12)c1cccc(Cl)c1F (single isomer, unassigned) [Example 364] | 6.05
NC(=O)n1cc(NC(=O)N2C[C@H](F)C[C@H]2C(=O)NCc2ccc(Cl)s2)c2ccccc21 [Example 11, (2S,4R)-4-Fluoro-pyrrolidine-1,2-dicarboxylic acid 1-[(1-carbamoyl-1H-indol-3-yl)-amide] 2-[(5-chloro-thiophen-2-ylmethyl)-amide]] | 8.15
NC(=O)n1cc(CC(=O)N2CCC[C@H]2C(=O)Nc2cccc(OC(F)(F)F)c2)c2ccccc21 [Example 441, 3-{2-[(S)-2-(3-trifluoromethoxy-phenylcarbamoyl)-pyrrolidin-1-yl]-2-oxo-ethyl}-indole-1-carboxylic acid amide] | 5.25
CC(=O)c1cn(CC(=O)N2[C@@H]3C[C@@H]3C[C@H]2C(=O)NCc2cccc(Cl)c2F)c2ccc(O)cc12 [Example 581, (1R,3S,5R)-2-[2-(3-Acetyl-5-hydroxy-indol-1-yl)-acetyl]-2-aza-bicyclo[3.1.0]hexane-3-carboxylic acid 3-chloro-2-fluoro-benzylamide] | 7.22
CC(=O)c1cn(CC(=O)N2C[C@H](F)C[C@H]2C(=O)NCc2cccc(Cl)c2F)c2ccc(OCc3ccccn3)cc12 [Example 589, (2S,4R)-1-{2-[3-Acetyl-5-(pyridin-2-ylmethoxy)-indol-1-yl]-acetyl}-4-fluoro-pyrrolidine-2-carboxylic acid 3-chloro-2-fluoro-benzylamide] | 6.63
CC(=O)c1nn(CC(=O)N2[C@@H]3C[C@@H]3C[C@H]2C(=O)Nc2nccc(C(F)(F)F)n2)c2ncccc12 [Example 769, (1R,3S,5R)-2-[2-(3-Acetyl-pyrazolo[3,4-b]pyridin-1-yl)-acetyl]-2-aza-bicyclo[3.1.0]hexane-3-carboxylic acid (4-trifluoromethyl-pyrimidin-2-yl)-amide] | 6.42
CO[C@H]1[C@@H](C(=O)Nc2cccc(OC(F)(F)F)c2F)N(C(=O)Cn2nc(C(N)=O)c3ccccc32)C[C@@H]1F [Example 628, 1-{2-[(2S,3S,4S)-4-Fluoro-2-(2-fluoro-3-trifluoromethoxy-phenylcarbamoyl)-3-methoxy-pyrrolidin-1-yl]-2-oxo-ethyl}-1H-indazole-3-carboxylic acid amide] | 7.42
CC(=O)c1nc(CC(=O)N2[C@@H]3C[C@@H]3C[C@H]2C(=O)N[C@H](CO)c2cccc(Cl)c2F)n2ccccc12 [Example 644, (1R,3S,5R)-2-[2-(1-Acetyl-imidazo[1,5-a]pyridin-3-yl)-acetyl]-2-aza-bicyclo [3.1.0]hexane-3-carboxylic acid [(S)-1-(3-chloro-2-fluoro-phenyl)-2-hydroxy-ethyl]-amide] | 7.10
CC(C)(C)c1csc(NC(=O)[C@@H]2CCCN2C(=O)Nc2cn(C(N)=O)c3ccccc23)n1 [Example 160, (S)-Pyrrolidine-1,2-dicarboxylic acid 2-[(4-tert-butyl-thiazol-2-yl)-amide] 1-[(1-carbamoyl-1H-indol-3-yl)-amide]] | 5.85
NC(=O)n1cc(NC(=O)N2CC[C@@H](F)[C@H]2C(=O)NCc2cccc(Cl)c2F)c2ccccc21 [Example 190, (2R,3R)-3-Fluoro-pyrrolidine-1,2-dicarboxylic acid 1-[(1-carbamoyl-1H-indol-3-yl)-amide] 2-(3-chloro-2-fluoro-benzylamide)] | 7.70
COc1ccc2c(c1)c(C=O)cn2CC(=O)N1C[C@H](F)C[C@H]1C(=O)NCc1cccc(Cl)c1F [Example 560, (2S,4R)-4-Fluoro-1-[2-(3-formyl-5-methoxy-indol-1-yl)-acetyl]-pyrrolidine-2-carboxylic acid 3-chloro-2-fluoro-benzylamide] | 6.85
C[C@H](NC(=O)[C@@H]1C[C@H](N)CN1C(=O)Nc1cn(C(N)=O)c2ccccc12)c1cccc(Cl)c1 [Example 68, (2S,4S)-4-Amino-pyrrolidine-1,2-dicarboxylic acid 1-[(1-carbamoyl-1H-indol-3-yl)-amide] 2-{[(S)-1-(3-chloro-phenyl)-ethyl]-amide}] | 4.82
CC[C@H](C)[C@H](NC(=O)[C@@H]1C[C@@H](F)CN1C(=O)Nc1cn(C(N)=O)c2ccccc12)C(=O)OC(C)(C)C [Example 15, (2S,3S)-2-{[(2S,4R)-1-(1-Carbamoyl-1H-indol-3-ylcarbamoyl)-4-fluoro-pyrrolidine-2-carbonyl]-amino}-3-methyl-pentanoic acid tert-butyl ester] | 5.96
Cc1ccnc(CNC(=O)[C@@H]2C[C@@H](F)CN2C(=O)Nc2cn(C(N)=O)c3ccccc23)c1F [Example 304, (2S,4R)-4-Fluoro-pyrrolidine-1,2-dicarboxylic acid 1-[(1-carbamoyl-1H-indol-3-yl)-amide] 2-[(3-fluoro-4-methyl-pyridin-2-ylmethyl)-amide]] | 6.19
CO[C@H]1[C@@H](C(=O)NCc2cccc(Cl)c2F)N(C(=O)Cn2nc(C(N)=O)c3cc(C)ncc32)C[C@@H]1F [Example 661, 1-{2-[(2S,3S,4S)-2-(3-Chloro-2-fluoro-benzylcarbamoyl)-4-fluoro-3-methoxy-pyrrolidin-1-yl]-2-oxo-ethyl}-5-methyl-1H-pyrazolo[3,4-c]pyridine-3-carboxylic acid amide] | 8.00
NC(=O)n1cc(NC(=O)N2C[C@@H](N)C[C@H]2C(=O)NC(CO)c2cc(Cl)cc(Cl)c2)c2ccccc21 (stereo partly drawn) [Example 70, (2S,4S)-4-Amino-pyrrolidine-1,2-dicarboxylic acid 1-[(1-carbamoyl-1H-indol-3-yl)-amide] 2-{[1-(3,5-dichloro-phenyl)-2-hydroxy-ethyl]-amide}] | 5.59
CC(=O)c1nn(CC(=O)N2[C@@H]3C[C@@H]3C[C@H]2C(=O)Nc2cccc(OC(F)(F)F)c2F)c2ccc(OC(C)C#N)cc12 (stereo partly drawn) [Example 771, (1R,3S,5R)-2-{2-[3-Acetyl-5-(cyano-methyl-methoxy)-indazol-1-yl]-acetyl}-2-aza-bicyclo[3.1.0]hexane-3-carboxylic acid (2-fluoro-3-trifluoromethoxy-phenyl)-amide] | 8.10
CC(=O)c1cn(CC(=O)N2[C@@H]3C[C@@H]3C[C@H]2C(=O)NCc2cccc(Cl)c2F)c2cc(OCc3nn[nH]n3)ccc12 [Example 587, (1R,3S,5R)-2-{2-[3-Acetyl-6-(1H-tetrazol-5-ylmethoxy)-indol-1-yl]-acetyl}-2-aza-bicyclo[3.1.0]hexane-3-carboxylic acid 3-chloro-2-fluoro-benzylamide] | 7.10

— patent US9085555B2, “Complement pathway modulators and uses thereof” (priority 2011, dated 2015)
